According to the NIST ThermoML archive (doi:10.1016/j.jct.2019.02.011):
Numbers after ± are expanded uncertainties.

Experiment: xn = mol fraction of the nth substance listed
Conditions: Liquid, Vibrating tube method

COC(=O)OC [dimethyl carbonate] + CCO
mass density [kg/m3]
Conditions	100 kPa	5000 kPa	10000 kPa	15000 kPa	20000 kPa	25000 kPa	30000 kPa	35000 kPa	40000 kPa
303.15 K, x1 = 0.0252	–	–	–	–	–	–	–	817.99 ± 1.4	821.19 ± 1.4
303.15 K, x1 = 0.0506	–	–	–	–	–	–	–	827.65 ± 1.4	830.86 ± 1.4
303.15 K, x1 = 0.0757	–	–	–	–	–	–	–	836.92 ± 1.4	840.19 ± 1.4
303.15 K, x1 = 0.1003	–	–	–	–	–	–	–	845.76 ± 1.4	849.04 ± 1.4
303.15 K, x1 = 0.1508	–	–	–	–	–	–	–	863.66 ± 1.4	867.01 ± 1.4
303.15 K, x1 = 0.2	–	–	–	–	–	–	–	880.45 ± 1.4	883.83 ± 1.4
303.15 K, x1 = 0.2547	–	–	–	–	–	–	–	898.44 ± 1.4	901.89 ± 1.4
303.15 K, x1 = 0.3002	–	–	–	–	–	–	–	912.97 ± 1.4	916.44 ± 1.4
303.15 K, x1 = 0.3498	–	–	–	–	–	–	–	928.31 ± 1.5	931.85 ± 1.5
303.15 K, x1 = 0.4	–	–	–	–	–	–	–	943.37 ± 1.5	946.93 ± 1.5
303.15 K, x1 = 0.449	–	–	–	–	–	–	–	957.5 ± 1.5	961.08 ± 1.5
303.15 K, x1 = 0.4996	–	–	–	–	–	–	–	971.61 ± 1.5	975.21 ± 1.5
303.15 K, x1 = 0.5507	–	–	–	–	–	–	–	985.38 ± 1.5	989 ± 1.5
303.15 K, x1 = 0.6005	–	–	–	–	–	–	–	998.28 ± 1.5	1001.97 ± 1.5
303.15 K, x1 = 0.6455	–	–	–	–	–	–	–	1009.61 ± 1.5	1013.31 ± 1.5
303.15 K, x1 = 0.6931	–	–	–	–	–	–	–	1021.1 ± 1.5	1024.81 ± 1.5
303.15 K, x1 = 0.7502	–	–	–	–	–	–	–	1034.38 ± 1.5	1038.11 ± 1.5
303.15 K, x1 = 0.8009	–	–	–	–	–	–	–	1045.74 ± 1.5	1049.49 ± 1.6
303.15 K, x1 = 0.8505	–	–	–	–	–	–	1052.73 ± 1.6	1056.47 ± 1.6	1060.22 ± 1.6
303.15 K, x1 = 0.9008	–	–	–	–	–	–	1063.26 ± 1.6	1067 ± 1.6	1070.77 ± 1.6
303.15 K, x1 = 0.9255	–	–	–	–	–	–	1068.3 ± 1.6	1072.05 ± 1.6	1075.83 ± 1.6
303.15 K, x1 = 0.9477	–	–	–	–	–	–	1072.75 ± 1.6	1076.5 ± 1.6	1080.28 ± 1.6
303.15 K, x1 = 0.9735	–	–	–	–	–	–	1077.83 ± 1.6	1081.57 ± 1.6	1085.37 ± 1.6
303.15 K, x1 = 1	–	–	–	–	–	–	1082.9 ± 0.61	1086.6 ± 0.63	1090.4 ± 0.64
308.15 K, x1 = 0.0252	785.78 ± 1.4	790.2 ± 1.4	794.7 ± 1.4	798.95 ± 1.4	803.01 ± 1.4	806.85 ± 1.4	810.55 ± 1.4	814.13 ± 1.4	817.65 ± 1.4
308.15 K, x1 = 0.0506	795.01 ± 1.4	799.48 ± 1.4	804.03 ± 1.4	808.34 ± 1.4	812.45 ± 1.4	816.29 ± 1.4	820.04 ± 1.4	823.67 ± 1.4	827.2 ± 1.4
308.15 K, x1 = 0.0757	804.1 ± 1.4	808.57 ± 1.4	813.12 ± 1.4	817.43 ± 1.4	821.55 ± 1.4	825.44 ± 1.4	829.2 ± 1.4	832.83 ± 1.4	836.41 ± 1.4
308.15 K, x1 = 0.1003	812.76 ± 1.4	817.27 ± 1.4	821.84 ± 1.4	826.15 ± 1.4	830.31 ± 1.4	834.21 ± 1.4	837.98 ± 1.4	841.6 ± 1.4	845.19 ± 1.4
308.15 K, x1 = 0.1508	830.19 ± 1.4	834.75 ± 1.4	839.38 ± 1.4	843.74 ± 1.4	847.91 ± 1.4	851.87 ± 1.4	855.69 ± 1.4	859.36 ± 1.4	862.96 ± 1.4
308.15 K, x1 = 0.2	846.57 ± 1.4	851.18 ± 1.4	855.82 ± 1.4	860.24 ± 1.4	864.46 ± 1.4	868.48 ± 1.4	872.26 ± 1.4	875.98 ± 1.4	879.58 ± 1.4
308.15 K, x1 = 0.2547	864.3 ± 1.4	868.96 ± 1.4	873.61 ± 1.4	878.08 ± 1.4	882.31 ± 1.4	886.33 ± 1.4	890.22 ± 1.4	893.94 ± 1.4	897.55 ± 1.4
308.15 K, x1 = 0.3002	878.53 ± 1.4	883.23 ± 1.4	887.94 ± 1.4	892.42 ± 1.4	896.65 ± 1.4	900.73 ± 1.4	904.63 ± 1.4	908.34 ± 1.4	911.96 ± 1.4
308.15 K, x1 = 0.3498	893.6 ± 1.4	898.3 ± 1.4	903.03 ± 1.4	907.51 ± 1.4	911.79 ± 1.4	915.88 ± 1.4	919.79 ± 1.4	923.55 ± 1.4	927.17 ± 1.5
308.15 K, x1 = 0.4	908.35 ± 1.4	913.1 ± 1.4	917.89 ± 1.4	922.37 ± 1.4	926.66 ± 1.4	930.75 ± 1.4	934.72 ± 1.5	938.43 ± 1.5	942.06 ± 1.5
308.15 K, x1 = 0.449	922.34 ± 1.4	927.13 ± 1.4	931.93 ± 1.4	936.46 ± 1.4	940.76 ± 1.5	944.91 ± 1.5	948.88 ± 1.5	952.59 ± 1.5	956.23 ± 1.5
308.15 K, x1 = 0.4996	936.23 ± 1.4	941.03 ± 1.5	945.84 ± 1.5	950.37 ± 1.5	954.72 ± 1.5	958.88 ± 1.5	962.91 ± 1.5	966.61 ± 1.5	970.26 ± 1.5
308.15 K, x1 = 0.5507	949.8 ± 1.5	954.65 ± 1.5	959.47 ± 1.5	964 ± 1.5	968.36 ± 1.5	972.52 ± 1.5	976.56 ± 1.5	980.26 ± 1.5	983.92 ± 1.5
308.15 K, x1 = 0.6005	962.5 ± 1.5	967.34 ± 1.5	972.17 ± 1.5	976.76 ± 1.5	981.12 ± 1.5	985.34 ± 1.5	989.34 ± 1.5	993.09 ± 1.5	996.75 ± 1.5
308.15 K, x1 = 0.6455	973.59 ± 1.5	978.43 ± 1.5	983.27 ± 1.5	987.86 ± 1.5	992.27 ± 1.5	996.5 ± 1.5	1000.55 ± 1.5	1004.29 ± 1.5	1007.96 ± 1.5
308.15 K, x1 = 0.6931	984.98 ± 1.5	989.86 ± 1.5	994.71 ± 1.5	999.31 ± 1.5	1003.72 ± 1.5	1007.95 ± 1.5	1012.02 ± 1.5	1015.76 ± 1.5	1019.43 ± 1.5
308.15 K, x1 = 0.7502	998.06 ± 1.5	1002.99 ± 1.5	1007.85 ± 1.5	1012.45 ± 1.5	1016.86 ± 1.5	1021.1 ± 1.5	1025.17 ± 1.5	1028.91 ± 1.5	1032.59 ± 1.5
308.15 K, x1 = 0.8009	1009.32 ± 1.5	1014.25 ± 1.5	1019.12 ± 1.5	1023.72 ± 1.5	1028.14 ± 1.5	1032.39 ± 1.5	1036.46 ± 1.5	1040.2 ± 1.5	1043.88 ± 1.5
308.15 K, x1 = 0.8505	1019.95 ± 1.5	1024.88 ± 1.5	1029.76 ± 1.5	1034.36 ± 1.5	1038.78 ± 1.5	1043.04 ± 1.5	1047.12 ± 1.5	1050.86 ± 1.6	1054.54 ± 1.6
308.15 K, x1 = 0.9008	1030.34 ± 1.5	1035.27 ± 1.5	1040.16 ± 1.5	1044.76 ± 1.5	1049.19 ± 1.5	1053.46 ± 1.6	1057.58 ± 1.6	1061.29 ± 1.6	1064.96 ± 1.6
308.15 K, x1 = 0.9255	1035.32 ± 1.5	1040.27 ± 1.5	1045.13 ± 1.5	1049.75 ± 1.5	1054.19 ± 1.6	1058.45 ± 1.6	1062.57 ± 1.6	1066.29 ± 1.6	1069.95 ± 1.6
308.15 K, x1 = 0.9477	1039.72 ± 1.5	1044.68 ± 1.5	1049.54 ± 1.5	1054.15 ± 1.6	1058.61 ± 1.6	1062.87 ± 1.6	1066.99 ± 1.6	1070.7 ± 1.6	1074.34 ± 1.6
308.15 K, x1 = 0.9735	1044.8 ± 1.5	1049.73 ± 1.5	1054.59 ± 1.6	1059.21 ± 1.6	1063.67 ± 1.6	1067.93 ± 1.6	1072.03 ± 1.6	1075.71 ± 1.6	1079.36 ± 1.6
308.15 K, x1 = 1	1049.91 ± 0.56	1054.84 ± 0.56	1059.69 ± 0.57	1064.3 ± 0.58	1068.73 ± 0.59	1073 ± 0.6	1077.1 ± 0.61	1080.78 ± 0.62	1084.38 ± 0.63
